In patent publication US4843085A, “Pyridine derivatives, process for production thereof and pharmaceutical compositions useful as anti-arhytmics” (Yamanouchi Pharmaceutical Co., Ltd., priority 1987, dated 1989):
Where a name gives a salt, the structure may show the parent alone.

System: corneal reflex responses
Assay: Local anesthetic activity (corneal reflex responses)
Type: in vivo, guinea-pigs (male Hartley strain)
Settings: instilled into the cornea, guinea-pigs
Protocol: Solutions of the compounds were instilled into the cornea, and the corneal reflex responses were determined.

CCN(CC)CC(=O)Nc1c(C)cccc1C [Lidocaine, reference compound]
ED50 (concentration required to inhibit corneal reflex responses by 50%): 0.82%

COC(=O)c1c(C)nc(C)c(C(=O)OC)c1-c1cc([N+](=O)[O-])ccc1OCCCCNC[C@H](O)COc1ccccc1.O=C(O)C(=O)O.O=C(O)C(=O)O [Example 1, Dimethyl 4-[2-[4-[[(S)-2-hydroxy-3-phenoxypropyl]amino]butoxy]-5-nitrophenyl]-2,6-dimethylpyridine-3,5dicarboxylate dioxalate]
ED50 (concentration required to inhibit corneal reflex responses by 50%): 0.49%

COC(=O)c1c(C)nc(C)c(C(=O)OC)c1-c1cc([N+](=O)[O-])ccc1OCCCCNC[C@@H](O)COc1ccccc1 [Example 2, Dimethyl 4-[2-[4-[[(R)-2-hydroxy-3-phenoxypropyl]amino]butoxy]-5-nitrophenyl]-2,6-dimethylpyridine-3,5-dicarboxylate oxalate]
ED50 (concentration required to inhibit corneal reflex responses by 50%): 0.32%
